From the NIST ThermoML archive (doi:10.1016/j.fluid.2008.01.020) come the findings set out here.

± gives the expanded uncertainty stated by the source.

The conditions of data set [1]: Liquid; for mass density: 293.15 K, 101.33 kPa.
Data set [2] in a line: refractive index (Na D-line) (dimensionless). The settings on record: 101.33 kPa, Liquid, Standard Abbe refractometry.

Usually mass density stands for mass per unit of volume. As usually defined, the vapor or sublimation pressure is the pressure of vapour in equilibrium with the condensed phase. In general, refractive index refers to a measure of how strongly the sample bends light. With `Cc1ccccc1C` [1,2-dimethylbenzene], in data set [1], the mass density is listed as 880.1 ± 1.3 kg/m3. Further, the “vapor or sublimation pressure” value in data set [1] (415.35 K) amounted to 95.1 ± 3 kPa. In data set [2] (293.15 K), the refractive index was 1.5055 ± 0.0007.

On to `Cc1cccc(C)c1` [1,3-dimethylbenzene], for which the mass density in data set [1] is listed as 864.4 ± 1.2 kg/m3. Further, in data set [1] (410.25 K), the “vapor or sublimation pressure” value is reported as 95.1 ± 3 kPa. In addition, the refractive index in data set [2] (293.15 K) amounted to 1.4972 ± 0.0007.

As for `Cc1ccc(C)cc1` [1,4-dimethylbenzene], the mass density in data set [1] is on record as 861 ± 1.2 kg/m3. The “vapor or sublimation pressure” value in data set [1] (408.65 K) was found to be 95.1 ± 3 kPa. Also, the refractive index in data set [2] (293.15 K) is reported as 1.4858 ± 0.0007.

As to `Cc1ccccc1O` [2-methylphenol], the mass density in data set [1] worked out at 1046 ± 1.6 kg/m3. Moreover, the “vapor or sublimation pressure” value in data set [1] (463.65 K) worked out at 95.1 ± 3 kPa. Moreover, the refractive index in data set [2] (293.15 K) came to 1.5468 ± 0.0007.

Take `Cc1cccc(O)c1` [3-methylphenol]: in data set [1], the mass density came to 1034 ± 1.5 kg/m3. Further, the “vapor or sublimation pressure” value in data set [1] (473.35 K) amounted to 95.1 ± 3 kPa. Besides, the refractive index in data set [2] (293.15 K) is reported as 1.5414 ± 0.0007.

Consider `Cc1ccc(O)cc1` [4-methylphenol], for which the “vapor or sublimation pressure” value in data set [1] (475.35 K) amounted to 95.1 ± 3 kPa. For the same compound, the refractive index in data set [2] (298.15 K) stood at 1.5391 ± 0.0007.

Regarding `CN(C)C=O` [dimethylformamide], the mass density in data set [1] is recorded as 948.7 ± 1.4 kg/m3. Besides, the “vapor or sublimation pressure” value in data set [1] (420.95 K) turned out to be 95.1 ± 3 kPa. In addition, the refractive index in data set [2] (293.15 K) was found to be 1.4305 ± 0.0007.
